Assay results reported in PMC3777193, “Diaryl- and triaryl-pyrrole derivatives: inhibitors of the MDM2–p53 and MDMX–p53 protein–protein interactions” (Medchemcomm, 2013).
Read-outs that look alike come from different tables or passages of the source.

Columns and labels:
MDMX–p53 = target: T1, MDMX–p53 (Homo sapiens, UniProt O15151); assay: MDMX–p53 ELISA binding assay
T1 construct: host or cells: in vitro coupled T7 transcription and rabbit reticulocyte lysate translation
T1 sequence (O15151 1-490): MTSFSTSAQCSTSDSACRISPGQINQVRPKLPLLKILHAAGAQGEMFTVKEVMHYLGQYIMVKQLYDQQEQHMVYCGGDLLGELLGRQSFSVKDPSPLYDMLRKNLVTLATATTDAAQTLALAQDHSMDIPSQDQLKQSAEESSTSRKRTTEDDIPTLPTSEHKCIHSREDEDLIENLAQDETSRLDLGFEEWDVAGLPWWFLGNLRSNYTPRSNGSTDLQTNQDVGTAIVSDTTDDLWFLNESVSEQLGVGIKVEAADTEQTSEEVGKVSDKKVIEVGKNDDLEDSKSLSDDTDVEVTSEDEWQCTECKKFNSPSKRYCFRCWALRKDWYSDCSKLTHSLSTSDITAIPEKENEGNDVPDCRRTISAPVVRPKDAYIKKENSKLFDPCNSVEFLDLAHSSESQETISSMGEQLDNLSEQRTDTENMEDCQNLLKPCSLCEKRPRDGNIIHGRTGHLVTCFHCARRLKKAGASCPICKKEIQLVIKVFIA

MDM2–p53 = MDM2–p53 (Homo sapiens, UniProt Q00987); assay: MDM2–p53 ELISA protein–protein binding assay; details: for fold loss of potency against MDM2–p53: N-alkyl malonamides compared with 10c
SN40R2 = assay: Growth inhibitory activity, SN40R2; details: read-out: GI50 SN40R2
Description: (§1) Growth inhibitory activity was determined for selected pyrroles in a panel of cell lines with defined MDM2, MDMX and p53 status (Table 5).

MRK-NU-1 = assay: Growth inhibitory activity, MRK-NU-1; details: Homo sapiens, MRK-nu-1, read-out: GI50 MRK-NU-1
Description: as §1

SJSA-1 = assay: Growth inhibitory activity, SJSA-1; details: Homo sapiens, SJSA-1, read-out: GI50 SJSA-1
Description: as §1

[1] = Table 3, n = 3 (b n = 5), read-out: MDM2 IC50
[2] = Table 3, n = 3 (c n = 1), read-out: MDMX IC50

Sequence of MDM2–p53 (Q00987 whole entry): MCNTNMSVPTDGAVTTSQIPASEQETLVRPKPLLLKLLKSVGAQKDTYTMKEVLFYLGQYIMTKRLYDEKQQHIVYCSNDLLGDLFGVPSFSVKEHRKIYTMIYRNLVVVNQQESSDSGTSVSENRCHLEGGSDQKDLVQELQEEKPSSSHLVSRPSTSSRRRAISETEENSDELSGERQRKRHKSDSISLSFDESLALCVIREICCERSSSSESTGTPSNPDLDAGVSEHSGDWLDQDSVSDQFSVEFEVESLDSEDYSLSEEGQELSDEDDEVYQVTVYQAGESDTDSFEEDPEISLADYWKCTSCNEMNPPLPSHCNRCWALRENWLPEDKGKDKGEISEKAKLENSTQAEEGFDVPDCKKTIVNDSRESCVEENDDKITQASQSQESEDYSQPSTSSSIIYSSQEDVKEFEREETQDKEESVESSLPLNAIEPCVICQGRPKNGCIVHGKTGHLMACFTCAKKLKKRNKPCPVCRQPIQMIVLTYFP

SMILES	IC50 (MDM2–p53; read-out: MDM2 IC50) [µM]	IC50 (MDM2–p53; [1]) [µM]	IC50 (MDMX–p53; [2]) [µM]	IC50 (MDMX–p53; read-out: MDMX IC50) [µM]	also measured
CCN1C(=O)C(=Cc2cc(-c3ccccc3)n(-c3ccc(Br)cc3)c2-c2ccccc2)C(=O)N(CC)C1=O [Compound 4v]	0.89 ± 0.04				inhibition at 50 µM (MDMX–p53; read-out: MDMX % inhibition at 50 μM): 74%; fold less potent against MDM2 compared with unsubstituted analogues (MDM2–p53): 3–4 fold
CCN1C(=O)C(=Cc2cc(-c3ccccc3)n(-c3ccc(Br)cc3)c2-c2ccccc2)C(=O)N(CC)C1=S [Compound 4w]	0.26 ± 0.05				
CN1C(=O)C(=Cc2cc(-c3ccccc3)n(-c3ccc(Cl)cc3)c2-c2ccccc2)C(=O)NC1=S [Compound 4x]					IC50 (MDMX–p53): 28 ± 23 µM; IC50 (MDM2–p53): 0.11 ± 0.02 µM; GI50 (SN40R2): 6.3 ± 0.4 µM; GI50 (MRK-NU-1): 7 ± 1 µM; GI50 (SJSA-1): 5.5 ± 0.6 µM
CN1C(=O)NC(=O)C(=Cc2cc(-c3ccccc3)n(-c3ccc(Br)cc3)c2-c2ccccc2)C1=O [Compound 4y]					IC50 (MDMX–p53): 35 ± 20 µM; IC50 (MDM2–p53): 0.34 ± 0.08 µM
CN1C(=O)C(=Cc2cc(-c3ccccc3)n(-c3ccc(Br)cc3)c2-c2ccccc2)C(=O)NC1=S [Compound 4z]					IC50 (MDM2–p53): 0.073 ± 0.002 µM
CC1(C)OC(=O)C(=Cc2cc(-c3ccccc3)n(-c3ccc(Br)cc3)c2-c2ccccc2)C(=O)O1 [Compound 7]		17 ± 4			fold less potent than 8c against MDM2–p53 (MDM2–p53): > 100 fold
CC1(C)OC(=O)C(Cc2cc(-c3ccccc3)n(-c3ccc(Br)cc3)c2-c2ccccc2)C(=O)O1 [Compound 9]		2.9 ± 0.7			fold less potent than 8c against MDM2–p53 (MDM2–p53): 20 fold
COC(=O)C(=Cc1cc(-c2ccccc2)n(-c2ccc(Cl)cc2)c1-c1ccccc1)C(=O)OC [Compound 10a]		> 50	> 50		activity against MDM2–p53 in words (MDM2–p53): essentially inactive
O=C(O)C(=Cc1cc(-c2ccccc2)n(-c2ccc(Cl)cc2)c1-c1ccccc1)C(=O)O [Compound 10b]		2.9 ± 0.2	> 50		activity against MDM2–p53 in words (MDM2–p53): modest activity
NC(=O)C(=Cc1cc(-c2ccccc2)n(-c2ccc(Cl)cc2)c1-c1ccccc1)C(N)=O [Compound 10c]		2.5 ± 0.2	30		
CNC(=O)C(=Cc1cc(-c2ccccc2)n(-c2ccc(Cl)cc2)c1-c1ccccc1)C(=O)NC [Compound 10d]		7.6 ± 0.4	30		fold loss of potency against MDM2–p53 (MDM2–p53): 3 fold
O=C(NCCO)C(=Cc1cc(-c2ccccc2)n(-c2ccc(Cl)cc2)c1-c1ccccc1)C(=O)NCCO [Compound 10e]		15 ± 3	42		fold loss of potency against MDM2–p53 (MDM2–p53): 6 fold
O=C(O)/C=C/c1cc(-c2ccccc2)n(-c2ccc(Cl)cc2)c1-c1ccccc1 [Compound 10f]		17 ± 3	> 50		activity against MDMX–p53 in words (MDMX–p53): inactive; activity against MDM2–p53 in words (MDM2–p53): only weakly active
CC(C)(C)c1cc(C=C2C(=O)NC(=S)NC2=O)c(-c2ccccc2)n1-c1ccc(Br)cc1 [Compound 11b]	0.76 ± 0.27			963	fold loss of potency for MDMX (MDMX–p53): > 200 fold
CC(C)(C)c1cc(C=C2C(=O)NC(=S)NC2=O)c(-c2ccccc2)n1-c1ccc(Cl)cc1 [Compound 11c]	1.1 ± 0.7			1680	fold loss of potency for MDMX (MDMX–p53): > 200 fold
O=C1NC(=S)NC(=O)C1=Cc1cc(-c2ccccc2)n(-c2ccc(Cl)cc2)c1C1CC1 [Compound 11d]	1.6 ± 1.7			3490	
O=C1NC(=S)NC(=O)C1=Cc1cc(-c2ccccc2)n(-c2ccc(Br)cc2)c1C1CC1 [Compound 11e]	1.6 ± 1.6			3430	
O=C1NC(=S)NC(=O)C1=Cc1cc(C2CC2)n(-c2ccc(Cl)cc2)c1-c1ccccc1 [Compound 11f]	2.1 ± 2.7			4920	
O=C1NC(=S)NC(=O)C1=Cc1cc(C2CC2)n(-c2ccc(Br)cc2)c1-c1ccccc1 [Compound 11g]	2.2 ± 2.7			5320	
